Results: patent US7875604B2, “Compounds that inhibit HIV particle formation” (University of Virginia Patent Foundation, priority 2004, dated 2011)
Read-outs that look alike come from different tables or passages of the source.

How the values were obtained:
[1] = MTS staining for PBMC viability to measure cytotoxicity; assay type: cell-based, human; conditions: human
Method: For the standard PBMC assay, PHA-P stimulated cells from at least two normal donors were pooled (mixed together), diluted in fresh medium to a final concentration of 1×10^6 cells/mL, and plated in the interior wells of a 96 well round bottom microplate at 50 μL/well (5×10^4 cells/well) in a standard format developed by the Infectious Disease Research department of Southern Research Institute. Pooling (mixing) of mononuclear cells from more than one donor is used to minimize the variability observed between individual donors, which results from quantitative and qualitative differences in HIV infection and overall response to the PHA and IL-2 of primary lymphocyte populations. Each plate contains virus/cell control wells (cells plus virus), experimental wells (drug plus cells plus virus) and compound control wells (drug plus media without cells, necessary for MTS monitoring of cytotoxicity). Since HIV-1 is not cytopathic to PBMCs, this allows the use of the same assay plate for both antiviral activity and cytotoxicity measurements. Test drug dilutions were prepared at a 2× concentration in microtiter tubes and 100 μL of each concentration was placed in appropriate wells using the standard format. 50 μL of a predetermined dilution of virus stock was placed in each test well (final MOI≅0.1). The PBMC cultures were maintained for seven days following infection at 37° C., 5% CO2. After this period, cell-free supernatant samples were collected for analysis of reverse transcriptase activity as a measure of virus release. Following removal of supernatant samples, compound cytotoxicity was measured by addition of MTS to the plates for determination of cell viability. Wells were also examined microscopically and any abnormalities were noted.
At assay termination, assay plates were stained with the soluble tetrazolium-based dye MTS (CellTiter 96 Reagent, Promega) to determine cell viability and quantify compound toxicity. The mitochondrial enzymes of metabolically active cells metabolize MTS to yield a soluble formazan product. This allows the rapid quantitative analysis of cell viability and compound cytotoxicity. […] At termination of the assay, 20 μL of MTS reagent was added per well. The microtiter plates were then incubated 4-6 hrs at 37° C. The incubation intervals were chosen based on empirically determined times for optimal dye reduction. Adhesive plate sealers were used in place of the lids, the sealed plate was inverted several times to mix the soluble formazan product and the plate was read spectrophotometrically at 490/650 nm with a Molecular Devices Vmax or SpectraMaxPlus plate reader.
(§1) Compounds were tested in the PBMC assay using the maximum high-test concentration possible based on the supplied stocks which are listed in table 3. Compounds were prepared at a 2× high-test concentration by combining drug stock with tissue culture media at a ratio of 5 μL of drug to 995 μL of media. This 2× high-test sample was subsequently serially diluted in tissue culture media using 1/2 log dilutions. This series of 2× concentrated drug was subsequently diluted 1:1 by combining with an equal volume of cells in media in the 96-well plates used for the assay.

[2] = tested on: U1 cells latently infected with HIV-1; assay: U1 latency activation assay (TNF-α induced, supernatant reverse transcriptase); assay type: cell-based; conditions: for TI (TC50/IC50): Table 6
Method: U1 cells were obtained from the AIDS Research and Reference Reagent Program and maintained under standard culture conditions in RPMI 1640 supplemented with 10% fetal bovine serum (heat inactivated), 2 mM L-glutamine, 100 U/mL penicillin and 100 μg/mL streptomycin. U1 cells are derived from the histocytic leukemia cell line U937, and contain an integrated copy of a cytokine and/or phorbol inducible provirus (HIV-1IIIB). Cultures were maintained in such a way as to ensure exponential growth of the populations. Addition of TNF-α to the cell culture induces HIV-1, so that inhibition of virus production indicates an inhibition of a post-integration function of the HIV-1 life cycle. This is where an inhibitor of Rev function would be expected to act. […]
(§2) At the time of the assay, cells were collected by centrifugation and counted by hemacytometer. If cell viability by Trypan Blue dye exclusion was less than 70% the assay was terminated. The cells were adjusted to 5×10^4 cells/mL and 100 μL placed in 96 well plates with 100 μL media containing a final concentration of 5 ng/mL TNF-α and the test compound. Cultures were incubated for 3 days and supernatants harvested. Compound toxicity was determined by MTS dye reduction. Virus expression was measured by supernatant reverse transcriptase activity.
Reverse transcriptase was assayed to measure virus particle release as described above for the PBMC assay.
as §1, with “U1 latency” for “PBMC”, “3. Compounds were tested using the maximum high-test concentration possible based on the supplied stocks.” for “3.”, “assay. Temacrazine a known inhibitor of HIV transcription was used as a control compound that is active in the post-integration part of the HIV life cycle.” for “assay.”
as §1, with “were tested using the” for “were tested in the PBMC assay using the”, “the supplied stocks. Compounds were” for “the supplied stocks which are listed in table 3. Compounds were”, “2× high-test (HT) sample was” for “2× high-test sample was”

[3] = MTS staining for cell viability in U1 cell assay; assay type: cell-based; conditions: human, U1 cells stimulated with TNF-α, read-out: TC50
Method: as §2
At assay termination, the assay plates were stained with the soluble tetrazolium-based dye MTS (CellTiter 96 Reagent, Promega) to determine cell viability and quantify compound toxicity as described for the PBMC assay.
as §1, with “U1 latency” for “PBMC”, “3. Compounds were tested using the maximum high-test concentration possible based on the supplied stocks.” for “3.”, “assay. Temacrazine a known inhibitor of HIV transcription was used as a control compound that is active in the post-integration part of the HIV life cycle.” for “assay.”
as §1, with “were tested using the” for “were tested in the PBMC assay using the”, “the supplied stocks. Compounds were” for “the supplied stocks which are listed in table 3. Compounds were”, “2× high-test (HT) sample was” for “2× high-test sample was”

[4] = PBMC plates with HIV-1 BR/93/021, MTS, read-out: TC50
[5] = PBMC plates with HIV-1 NL4-3, MTS, read-out: TC50
[6] = Human immunodeficiency virus 1, 72 h, U1 cell assay, Table 6, 5 ng/mL TNF-α, 3 days, RT activity

Compound	CC50 at 7 days [1, 4]	CC50 at 7 days [1, 5]	IC50 [2, 6]	TI (TC50/IC50) ([2]; U1 cell assay)	CC50 at 3 days ([3]; Table 6, MTS)	IC50 ([2]; U1 cell assay, Table 6, 5 ng/mL TNF-α, 3 days, RT activity)	CC50 at 7 days ([1]; TC50)	IC50 ([2]; Human immunodeficiency virus 1, U1 cell assay, analogs, Table 8)	CC50 at 3 days ([3]; analogs, Table 8, MTS)
COc1ccc2nc(C(F)(F)F)c(C#N)c(N)c2c1 [Compound 104366, 4-amino-6-methoxy-2-(trifluoromethyl)-3-quinolinecarbonitrile]	24.9 µM	22 µM	< 0.25 µM	>49.6	12.4 µM				
2-chloro-N-(4-methylphenyl)-4-(trifluoromethyl)-1,3-thazole-5-carboxamide [Compound 91161]				1.35		16.5 µM			
Fc1ccc(Nc2ncnc3ccccc23)cc1Cl [Compound 109020, N-(3-chloro-4-fluorophenyl)-N-(4-quinazolinyl)amine]			0.27 µM	>151	> 40.8 µM		> 40.8 µM		
COc1cccc(NC(=O)c2cc(Cl)nnc2Cl)c1 [Compound 107740, 3,6-dichloro-N-(3-methoxyphenyl)-4-pyridazinecarboxamide]	18.8 µM	14.4 µM	1.1 µM	>26.6	> 29.3 µM				
CS(=O)(=O)c1ncc(-c2ccc(Br)cc2)cn1 [Compound 107129, -(4-bromophenyl)-2-(methylsulfonyl)pyrimidine]	6.26 µM	4.13 µM	> 53 µM		> 53 µM				
CCc1c(C(=O)Nc2ccccc2)c(C)nc2sc(C(N)=O)c(N)c12 [Compound 75168, 3-amino-4-ethyl-6-methyl-N˜5˜-phenylthieno[2,3-b]pyridine-2,5-dicarboxamide]	> 26.8 µM	> 26.8 µM							
CCc1c(C)nc2sc(C(N)=O)c(N)c2c1C [Compound 103833, 3-amino-5-ethyl-4,6-dimethylthieno[2,3-b]pyridine-2-carboxamide]			0.4 µM	>94	> 37.6 µM		> 37.6 µM		
COc1ccc2cc3c(N)n[nH]c3nc2c1 [Compound 89246, 7-methoxy-1H-pyrazolo[3,4-b]quinolin-3-ylamine]	32.7 µM	21.9 µM	0.24 µM	102	24.6 µM			< 0.172 µM	29 µM
